Values after ≈ are worked out from the molar mass of the structure shown.
Settings: buffer; pH 7.4; 200.0 µM
Work on `CC1(C(=O)O)CCC(C(=O)N2CCCCC2)C1(C)C` (stereo not drawn) yielded a solubility kinetic of over 40.1 µg/mL.
In the case of `Cc1nc(Cl)c(N=Cc2cccc([N+](=O)[O-])c2)c(Cl)n1`, the solubility kinetic is reported as over 46.7 µg/mL.
`Brc1ccccc1C1N=C(c2ccccc2)NO1` (stereo not drawn) gave a solubility kinetic of 10.5 µg/mL (≈ 34.6 µM).
Work on `Cc1cc(C)cc(NC(=O)COC(=O)c2cc(C)oc2C)c1` yielded a solubility kinetic of under 0.6 µg/mL.
With `COc1ccc(NC(=O)C2C3CCC(O3)C2C(=O)O)cc1OC` (stereo not drawn) the solubility kinetic was over 48.2 µg/mL.
`COc1ccc2nc(C)cc(Nc3ccc(C)cc3)c2c1.Cl` gave a solubility kinetic of 30.5 µg/mL.
With `COc1ccc(C)cc1NC(=O)CN1C(=O)COc2ccc(C)cc21` the solubility kinetic was 2.1 µg/mL (≈ 6.17 µM).
`O=c1ccccn1CCOc1ccc(Cl)cc1` gave a solubility kinetic of over 37.5 µg/mL.
`NC(=O)c1ccccc1N=Cc1cccnc1` gave a solubility kinetic of over 33.8 µg/mL.
Work on `CSc1nc(N2CCOCC2)c2sccc2n1` yielded a solubility kinetic of 38.6 µg/mL (≈ 144 µM).
With `O=C(NCc1ccc2c(c1)OCO2)C1CCC(=O)N1C1CCCC1` (stereo not drawn) the solubility kinetic was over 49.6 µg/mL.
For `Cc1nc2ccccn2c1-c1csc(Nc2ccc(C(=O)O)cc2)n1`, the solubility kinetic was 2.5 µg/mL (≈ 7.13 µM).
Compound `CC(NC(=O)CNC(=O)C1CCCCC1)c1cccc(Cl)c1` (stereo not drawn) has a solubility kinetic of 42.6 µg/mL (≈ 132 µM).
In the case of `CSCCCNC(=S)Nc1ccc(N2CCOCC2)cc1`, the solubility kinetic is reported as over 48.8 µg/mL.
In the case of `O=C(c1cc(-c2ccc(Cl)cc2)on1)N1CCCC1`, the solubility kinetic is reported as 1.4 µg/mL (≈ 5.06 µM).
With `CCOC(=O)CSCc1csc(CC(=O)Nc2ccccc2C)n1` the solubility kinetic was 52.4 µg/mL (≈ 144 µM).
`O=C(COC(=O)c1ccccc1)NC1CCCC1` gave a solubility kinetic of over 37.1 µg/mL.
For `Cc1ccc(C(C)C)c(OCCCn2ccnc2C)c1.O=C(O)C(=O)O`, the solubility kinetic was 51.2 µg/mL.
Compound `O=C(Oc1ccc(Br)cc1)c1cccnc1` has a solubility kinetic of 34.3 µg/mL (≈ 123 µM).
With `O=C(Cc1c(F)cccc1Cl)OCC(=O)c1ccc[nH]1` the solubility kinetic was 26.1 µg/mL (≈ 88.3 µM).
For `CC(=O)NC(c1ccc(C(C)C)cc1)c1c(O)ccc2ccccc12` (stereo not drawn), the solubility kinetic was under 0.7 µg/mL.
For `CSc1nsc(SCC(=O)NCc2ccc(C)cc2)n1`, the solubility kinetic was 11.8 µg/mL (≈ 36.3 µM).
For `O=C(Nc1ccc(F)cc1F)NC1CCCCCCC1`, the solubility kinetic was 1.9 µg/mL (≈ 6.73 µM).
For `Cc1c(/C=N/NC(=O)c2ccc(Br)o2)cnn1C`, the solubility kinetic was over 46.7 µg/mL.
`O=C(CCCOc1ccccc1)NCCc1nc2ccccc2[nH]1` gave a solubility kinetic of over 48.5 µg/mL.
With `CCOC(=O)c1sc(Nc2cccc(Cl)c2)nc1C` the solubility kinetic was under 0.3 µg/mL.
`CCc1cccc(C)c1NC(=S)N(CCOC)C(C)c1ccco1` (stereo not drawn) showed a solubility kinetic of 25.8 µg/mL (≈ 74.5 µM).
`CCn1ccc(C(=O)N2CCN(c3ncccn3)CC2)n1` gave a solubility kinetic of over 43 µg/mL.
`CN(C(=O)COc1ncnc2sccc12)c1ccccc1` gave a solubility kinetic of 39.4 µg/mL (≈ 132 µM).
For `CC(C)N(Cc1nc(COc2ccccc2)no1)Cc1nccn1C`, the solubility kinetic was 48.2 µg/mL (≈ 141 µM).
`COc1ccc(C(=O)OCC(=O)Nc2ccccc2)cc1[N+](=O)[O-]` showed a solubility kinetic of 3 µg/mL (≈ 9.08 µM).
Work on `O=C(Nc1ccc(OCC(=O)N2CCOCC2)cc1)c1ccccc1F` yielded a solubility kinetic of over 53.8 µg/mL.
Compound `Cc1ccc(CC2C(=O)N(c3cc(C)ccc3C)C(=O)C2C)cc1` (stereo not drawn) has a solubility kinetic of 4.6 µg/mL (≈ 14.3 µM).
`CC1CCCN(C2(O)C(=O)Nc3ccc([N+](=O)[O-])cc32)C1` (stereo not drawn) showed a solubility kinetic of 16.6 µg/mL (≈ 57 µM).
In the case of `NC(=O)c1ccc(C2SCC(=O)N2CCc2ccccc2)cc1` (stereo not drawn), the solubility kinetic is reported as over 49 µg/mL.
`Cc1ccccc1C(=O)Nc1scc(-c2ccc(Br)cc2)c1C(=O)O` gave a solubility kinetic of 3.5 µg/mL (≈ 8.41 µM).
With `CCn1c(=O)c2cc(C(=O)NCCN(C)C)sc2c2ccccc21` the solubility kinetic was 51.5 µg/mL (≈ 150 µM).
`COC(=O)c1ccccc1NC(=S)N1CCOCC1` gave a solubility kinetic of 40.1 µg/mL (≈ 143 µM).
For `CCN1CCN(C(=O)CN2C(=O)COc3ccc(C)cc32)CC1`, the solubility kinetic was over 47.6 µg/mL.
In the case of `CCN1CCN(C(=O)C2COc3ccccc3O2)CC1` (stereo not drawn), the solubility kinetic is reported as over 41.5 µg/mL.
`O=C(Cc1ccc(F)cc1)NC(Cc1c[nH]c2ccccc12)C(=O)O` (stereo not drawn) gave a solubility kinetic of 46.6 µg/mL (≈ 137 µM).
`COc1ccccc1C(=O)N/C(=C\c1ccccc1)C(=O)NCc1ccco1` gave a solubility kinetic of over 56.5 µg/mL.
`CCOc1ccc(CC(=O)N/N=C(\C)c2cccnc2)cc1` gave a solubility kinetic of over 44.6 µg/mL.
Work on `CCC(C(=O)NC1CCN(C)CC1)c1ccccc1` (stereo not drawn) yielded a solubility kinetic of over 39.1 µg/mL.
`Cn1c(C(=O)Nc2ccc(Cl)cc2)cc2cc(Cl)ccc21` showed a solubility kinetic of under 0.3 µg/mL.
`Cc1cc(C)c(NC(=O)COC(=O)C2CCCO2)c(C)c1` (stereo not drawn) showed a solubility kinetic of over 43.7 µg/mL.
In the case of `Cn1cnc([N+](=O)[O-])c1Sc1nc2ccccc2[nH]1`, the solubility kinetic is reported as 5.1 µg/mL (≈ 18.5 µM).
For `Cc1cc(C)cc(NC(=O)c2cccc(NC(=O)c3ccco3)c2)c1`, the solubility kinetic was 1 µg/mL (≈ 2.99 µM).

— PubChem BioAssay AID1996
